# Details: not given
row,logP,SMILES
1,2.73,CCCCCCl

# Same assay, conditions: 25 °C
row,SMILES,solubility [mM]
1,CCCCCCCCC(=O)OCC,0.158
2,CCCCCCC=O,10.9
3,C#CCCCCCCC,0.068
4,CCOC(=O)CCCCCCC(=O)OCC,2.95
5,CCCCOC(=O)c1ccc(N)cc1,1.75
6,COc1ccc(NC(C)=O)cc1,91.1
7,Brc1ccc(Br)c(Br)c1,0.0222
8,Clc1ccccc1I,0.291
9,Clc1ccccc1Br,0.383
10,CCCCCCCCCC(=O)OCC,0.0793
11,CCOC(=O)CCCCCCCC(=O)OCC,1.02
12,Ic1cccc(I)c1,0.0286
13,Clc1cccc(I)c1,0.288
14,C=COC=C,77.6
15,CCOC(=O)CCCCCC(=O)OCC,9.4
16,FC(F)(F)CCl,77.7

# Now from value to compound:
row,solubility [mM],SMILES
1,4.36,CCCCCC(=O)OCC
2,3.08,CCC(C)C(O)C(C)CC (stereo unspecified)
3,1.83,CCCCCCC(=O)OCC
4,102,CCCCOC
5,25.1,CC(C)CC(C)CO (stereo unspecified)
6,10.3,C/C=C\C
7,135,CCC(C)C(C)(C)O (stereo unspecified)
8,29.3,CC(C)CCOC=O
9,173,CCCOCC
10,155,CCC(=O)C(C)C
11,2.18,CCCCCC[C@@H](O)CC
12,17,CCCCC(=O)OCC
13,0.407,CCCCCCCC(=O)OCC
14,1050,C=CC(O)CC (stereo unspecified)
15,51.2,CCC(=O)OC(C)C
16,113,CC(C)CC(C)(C)O
17,99.9,CC(C)COC=O
18,3.96,CCCC(Cl)Cl
19,407,CC(C)C(C)(C)O
20,45.6,CCCOC(=O)CC
21,278,CCOC(C)C
22,1.15,CCCCCCCCCC(C)O (stereo unspecified)
23,53.6,CCC(C)(O)C(C)(C)C (stereo unspecified)

# Same assay, conditions: 27 °C
row,solubility [mM],SMILES
1,0.0591,Ic1ccccc1I

# Source: the OPERA property sets (Mansouri et al. 2018)
